Measured values: ChEMBL document CHEMBL1158459, “Discovery of a peroxisome proliferator activated receptor gamma (PPARgamma) modulator with balanced PPARalpha activity for the treatment of type 2 diabetes and dyslipidemia” (J Med Chem, 2009)

Tested on: not listed separately
Experiment: AUC in rat at 2 mg/kg, po
Assay type: ADME, organism-based, Plasma
Set-up: dose 2 mg/kg, route oral
Settings: plasma

Compound	AUC
CCC[C@H](Oc1cccc(Cn2c(C)c(C(=O)c3ccc(Cl)cc3)c3ccc(OC(F)(F)F)cc32)c1)C(=O)O	1.2 µM·h
Cc1c(C(=O)c2ccc(Cl)cc2)c2ccc(OC(F)(F)F)cc2n1Cc1cccc(O[C@@H](C)C(=O)O)c1	0.6 µM·h
Cc1c(C(=O)c2ccc(Cl)cc2)c2ccc(OC(F)(F)F)cc2n1Cc1cccc(O[C@@H](C(=O)O)C(C)C)c1	3.5 µM·h
Cc1c(C(=O)c2ccc(Cl)cc2)c2ccc(OC(F)(F)F)cc2n1Cc1cccc(O[C@H](C(=O)O)C(C)C)c1	1.5 µM·h

Target: T1, Peroxisome proliferator-activated receptor alpha (Homo sapiens, UniProt Q07869)
T1 sequence (Q07869 whole entry): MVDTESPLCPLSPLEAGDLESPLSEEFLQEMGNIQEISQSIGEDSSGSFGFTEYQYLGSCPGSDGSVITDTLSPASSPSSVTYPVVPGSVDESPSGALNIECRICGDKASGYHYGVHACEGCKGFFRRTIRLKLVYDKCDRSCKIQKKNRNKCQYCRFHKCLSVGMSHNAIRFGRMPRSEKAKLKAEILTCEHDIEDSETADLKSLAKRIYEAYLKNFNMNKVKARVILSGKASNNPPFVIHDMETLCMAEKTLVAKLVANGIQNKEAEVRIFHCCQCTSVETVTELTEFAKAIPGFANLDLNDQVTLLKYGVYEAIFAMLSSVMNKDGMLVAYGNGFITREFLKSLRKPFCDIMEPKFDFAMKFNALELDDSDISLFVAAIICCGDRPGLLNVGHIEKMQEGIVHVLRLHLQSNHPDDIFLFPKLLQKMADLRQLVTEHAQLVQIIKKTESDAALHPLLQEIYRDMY
Experiment: Inhibition of human PPARalpha receptor by scintillation proximity assay
Settings: not given

Compound	IC50
CCC[C@H](Oc1cccc(Cn2c(C)c(C(=O)c3ccc(Cl)cc3)c3ccc(OC(F)(F)F)cc32)c1)C(=O)O	> 50000 nM
Cc1c(C(=O)c2ccc(Cl)cc2)c2ccc(OC(F)(F)F)cc2n1Cc1cccc(O[C@@H](C)C(=O)O)c1	> 15000 nM
Cc1c(C(=O)c2ccc(Cl)cc2)c2ccc(OC(F)(F)F)cc2n1Cc1cccc(O[C@@H](C(=O)O)C(C)C)c1	491 nM
Cc1c(C(=O)c2ccc(Cl)cc2)c2ccc(OC(F)(F)F)cc2n1Cc1cccc(O[C@H](C(=O)O)C(C)C)c1	2980 nM

Target: T1, Peroxisome proliferator-activated receptor alpha
Assay type: functional, cell-based, COS-1
Settings: not given

Compound	EC50
CCC[C@H](Oc1cccc(Cn2c(C)c(C(=O)c3ccc(Cl)cc3)c3ccc(OC(F)(F)F)cc32)c1)C(=O)O	> 3000 nM
Cc1c(C(=O)c2ccc(Cl)cc2)c2ccc(OC(F)(F)F)cc2n1Cc1cccc(O[C@@H](C)C(=O)O)c1	4890 nM
Cc1c(C(=O)c2ccc(Cl)cc2)c2ccc(OC(F)(F)F)cc2n1Cc1cccc(O[C@@H](C(=O)O)C(C)C)c1	2 nM
Cc1c(C(=O)c2ccc(Cl)cc2)c2ccc(OC(F)(F)F)cc2n1Cc1cccc(O[C@H](C(=O)O)C(C)C)c1	370 nM

Target: T2, Peroxisome proliferator-activated receptor alpha (Mus musculus, UniProt P23204)
T2 sequence (P23204 whole entry): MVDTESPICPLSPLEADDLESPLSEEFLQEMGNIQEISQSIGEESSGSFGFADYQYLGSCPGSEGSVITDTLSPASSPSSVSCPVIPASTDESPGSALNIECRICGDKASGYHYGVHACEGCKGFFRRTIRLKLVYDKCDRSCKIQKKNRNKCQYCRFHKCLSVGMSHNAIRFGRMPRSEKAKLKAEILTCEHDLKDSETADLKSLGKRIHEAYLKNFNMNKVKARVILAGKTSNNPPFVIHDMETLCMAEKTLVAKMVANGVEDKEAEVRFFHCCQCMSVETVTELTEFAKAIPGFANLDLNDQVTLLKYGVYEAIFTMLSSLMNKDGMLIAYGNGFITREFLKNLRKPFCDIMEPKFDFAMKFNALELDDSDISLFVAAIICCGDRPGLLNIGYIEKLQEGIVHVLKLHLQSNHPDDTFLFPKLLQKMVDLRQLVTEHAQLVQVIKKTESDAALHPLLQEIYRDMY
Experiment: Agonist activity at mouse PPARalpha receptor expressed in african green monkey COS1 cells co-transfected with fused yeast Gal4-DBD by transactivation assay
Assay type: functional, cell-based, COS-1
Settings: not given

Compound	EC50
CCC[C@H](Oc1cccc(Cn2c(C)c(C(=O)c3ccc(Cl)cc3)c3ccc(OC(F)(F)F)cc32)c1)C(=O)O	> 3000 nM
Cc1c(C(=O)c2ccc(Cl)cc2)c2ccc(OC(F)(F)F)cc2n1Cc1cccc(O[C@@H](C)C(=O)O)c1	> 3000 nM
Cc1c(C(=O)c2ccc(Cl)cc2)c2ccc(OC(F)(F)F)cc2n1Cc1cccc(O[C@@H](C(=O)O)C(C)C)c1	40 nM
Cc1c(C(=O)c2ccc(Cl)cc2)c2ccc(OC(F)(F)F)cc2n1Cc1cccc(O[C@H](C(=O)O)C(C)C)c1	360 nM

Tested on: Mus musculus
Experiment: Antidiabetic activity in C57BLKS/J-m+/+Leprdb db/db mouse assessed as reduction in plasma glucose levels at 10 mg/kg, po once daily for 11 days relative to control
Assay type: functional
Set-up: scale not given: the % may be the effect or the level left
Settings: not given

Compound	Activity
CCC[C@H](Oc1cccc(Cn2c(C)c(C(=O)c3ccc(Cl)cc3)c3ccc(OC(F)(F)F)cc32)c1)C(=O)O	22%
Cc1c(C(=O)c2ccc(Cl)cc2)c2ccc(OC(F)(F)F)cc2n1Cc1cccc(O[C@@H](C)C(=O)O)c1	53%
Cc1c(C(=O)c2ccc(Cl)cc2)c2ccc(OC(F)(F)F)cc2n1Cc1cccc(O[C@@H](C(=O)O)C(C)C)c1	101%
Cc1c(C(=O)c2ccc(Cl)cc2)c2ccc(OC(F)(F)F)cc2n1Cc1cccc(O[C@H](C(=O)O)C(C)C)c1	76%

Tested on: Mus musculus
Experiment: Antidiabetic activity in C57BLKS/J-m+/+Leprdb db/db mouse assessed as reduction in plasma triglyceride levels at 10 mg/kg, po once daily for 11 days relative to control
Assay type: functional
Set-up: scale not given: the % may be the effect or the level left
Settings: not given

Compound	Activity
CCC[C@H](Oc1cccc(Cn2c(C)c(C(=O)c3ccc(Cl)cc3)c3ccc(OC(F)(F)F)cc32)c1)C(=O)O	8%
Cc1c(C(=O)c2ccc(Cl)cc2)c2ccc(OC(F)(F)F)cc2n1Cc1cccc(O[C@@H](C)C(=O)O)c1	4%
Cc1c(C(=O)c2ccc(Cl)cc2)c2ccc(OC(F)(F)F)cc2n1Cc1cccc(O[C@@H](C(=O)O)C(C)C)c1	87%
Cc1c(C(=O)c2ccc(Cl)cc2)c2ccc(OC(F)(F)F)cc2n1Cc1cccc(O[C@H](C(=O)O)C(C)C)c1	37%

Target: T3, Peroxisome proliferator-activated receptor gamma (Homo sapiens, UniProt P37231)
T3 sequence (P37231 whole entry): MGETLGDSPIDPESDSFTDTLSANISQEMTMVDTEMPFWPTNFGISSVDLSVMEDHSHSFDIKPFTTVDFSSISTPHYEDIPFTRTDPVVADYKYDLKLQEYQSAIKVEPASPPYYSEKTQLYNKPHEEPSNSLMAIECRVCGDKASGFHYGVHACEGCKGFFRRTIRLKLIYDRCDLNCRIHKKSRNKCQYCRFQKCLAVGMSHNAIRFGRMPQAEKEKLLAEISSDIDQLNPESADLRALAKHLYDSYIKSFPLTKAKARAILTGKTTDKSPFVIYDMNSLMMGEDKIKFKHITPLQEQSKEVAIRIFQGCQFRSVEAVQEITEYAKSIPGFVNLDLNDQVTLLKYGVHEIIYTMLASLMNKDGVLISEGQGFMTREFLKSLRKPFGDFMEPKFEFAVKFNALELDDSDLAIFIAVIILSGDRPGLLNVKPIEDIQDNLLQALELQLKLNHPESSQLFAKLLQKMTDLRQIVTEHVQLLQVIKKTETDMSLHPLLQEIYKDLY
Settings: not given

Compound	IC50
CCC[C@H](Oc1cccc(Cn2c(C)c(C(=O)c3ccc(Cl)cc3)c3ccc(OC(F)(F)F)cc32)c1)C(=O)O	8 nM
Cc1c(C(=O)c2ccc(Cl)cc2)c2ccc(OC(F)(F)F)cc2n1Cc1cccc(O[C@@H](C(=O)O)C(C)C)c1	10 nM
Cc1c(C(=O)c2ccc(Cl)cc2)c2ccc(OC(F)(F)F)cc2n1Cc1cccc(O[C@H](C(=O)O)C(C)C)c1	17 nM

Target: T3, Peroxisome proliferator-activated receptor gamma
Settings: not given
Remark: another data set of the same source

Compound	EC50
CCC[C@H](Oc1cccc(Cn2c(C)c(C(=O)c3ccc(Cl)cc3)c3ccc(OC(F)(F)F)cc32)c1)C(=O)O	1 nM
Cc1c(C(=O)c2ccc(Cl)cc2)c2ccc(OC(F)(F)F)cc2n1Cc1cccc(O[C@@H](C(=O)O)C(C)C)c1	2 nM
Cc1c(C(=O)c2ccc(Cl)cc2)c2ccc(OC(F)(F)F)cc2n1Cc1cccc(O[C@H](C(=O)O)C(C)C)c1	21 nM
